# System: 5xFAD hippocampal neurons
# Assay: vGlut1-pHluorin (vG-pH) synaptic transmission assay in primary hippocampal neurons
# Type: cell-based, mouse
# Protocol: Hippocampal CA1-CA3 regions were isolated from postnatal (0–3 d old) 5xFAD mice. For dissociation, the dissected tissues were incubated with trypsin (Sigma) and DNase (Sigma) for 10 minutes at 37 ℃, followed by gentle trituration with pipette. 4.0–5.0 × 10^4 cells were plated on poly-ornithine-coated coverslips. Cells were maintained in culture media consisting of Neurobasal™-A Medium (Gibco) supplemented with GlutaMAX™ Supplement (Gibco) and B-27™ Supplement (Gibco) in a humidified incubator set at 37 ℃ with 5% CO2. Neurons were transfected 7 days after plating and further incubated for 14–21 days in culture medium. All results are obtained from at least three independent primary cultures. […]
# For optical imaging, primary cultured hippocampal neurons were transfected with vGlut1-pHluorin (vG-pH) using the Ca^2+ phosphate precipitation method, as previously described (Bae et al. ([2020])). […] Fluorescence excitation/emission and collection were achieved using a 40 × Fluar Zeiss objective lens (1.3 NA) and 500–550 nm emission and 498 nm dichroic filters (Chroma). […]
# All images were analyzed using ImageJ with plugin Time Series Analyzer. Synaptic boutons were selected as oval regions of interest (diameter, 10 pixels), and the intensity of fluorescence at synapses was measured. Fluorescence traces were analyzed using Origin Pro.
smiles,measurement,setting,value
"Cl.N[C@@H](CCC(=O)NNc1ccccc1F)C(F)F [RA-PR058, (S)-4-amino-5,5-difluoro-N'-(2-fluorophenyl)pentanehydrazide hydrochloride]",Recovery of synaptic transmission dysfunction,"5xFAD hippocampal neurons, 10 μM RA-PR058, 100 AP at 10 Hz, did not reach statistical significance",partially recovered
same,Mean amplitude of 100AP vG-pH response,"RA-PR058 treated 5xFAD hippocampal neurons, 10 Hz for 10 s, normalized to maximal NH4Cl response, mean ± SEM, n = 6, untreated 5xFAD 0.11 ± 0.01, WT 0.20 ± 0.01",0.15 ± 0.03
